Data taken from patent US10214564B2, “Antimicrobial peptides derived from hepatitis B virus core protein arginine-rich domain” (priority 2013, dated 2019).
Like-named read-outs stand apart in the source and are kept apart here. Where no end group is shown, it is not given here.

Experiments:
[1] = tested on: Huh7, HepG2, Vero and HEK293 cells; assay: Cytotoxicity, MTT assay; type: cell-based, human, monkey; settings: for effect on cell viability: 0 to 100 μM, 1 hour at 37° C.
Procedure: (§1) (A) Hemolytic activities of HBc147-183 and melittin were measured with 10% human red blood cells (RBC). […] (B) Huh7, HepG2, Vero and HEK293 cells were incubated with varying concentrations (0 to 100 μM) of HBc147-183 and melittin for 1 hour at 37° C. The effects on cell viability were determined by MTT assay. Melittin was used as a positive control. […] (C) Kidney cells, Vero and HEK293 were stained with CFSE and seeded at day 0. At day 1, cells were incubated with varying concentrations (0 to 100 μM) of HBc147-183 for 1 hour. Cell proliferation at day 1 and day 3 were determined by flow cytometry. […] Samples assayed in FIGS. 7A-C were measured in triplicates. (D) (D) In vivo toxicity of ARD peptide HBc147-183 was determined using three-week old male ICR mice. The mice were injected intraperitoneally with peptide (10 and 20 mg/kg of body weight).
Cytotoxicity was measured in HepG2, Huh7, HEK293, and Vero cells by MTT assay. Cells were seeded at 10^4 cells/well in a 96-well plate and serial dilutions of peptides were added into each well. PBS was used as a negative control and melittin was used as a positive control. After 1 hour of incubation, the medium were replaced by a fresh medium containing 10% MTT solution (PROMEGA™), and the plate was incubated for 4 hours in 5% CO2 at 37° C., The absorbance at the wavelength a 595 nm was measured by an ELISA reader (BIO-RAD™ model 680).

[2] = tested on: K. pneumoniae; type: cell-based, Klebsiella pneumoniae; settings: for Minimal bactericidal concentration: K. pneumoniae ATCC 13884
Procedure: (§2) The antimicrobial activities of HBc ARD peptides were tested on numerous bacterial strains from ATCC, including Pseudomonas aeruginosa Migula strain (ATCC 27853, ampicillin-resistant), Pseudomonas aeruginosa Migula strain (ATCC 9027, ampicillin-resistant), Klebsiella pneumoniae strain (ATCC 17593), Escherichia coli strain (ATCC 25922), Staphylococcus aureus subsp. strain (ATCC 25923, methicillin-resistant), Staphylococcus aureus subsp. strain (ATCC29213, methicillin-resistant), Staphylococcus aureus subsp. strain (ATCC 19636, methicillinresistant), and Candida albicans strain (ATCC 10231).
(§3) All peptides were purchased from Yao-Hong Biotechnology Inc. (Taipei, Taiwan). Vendors provided data of peptide characterizations, including HPLC and Mass. Antimicrobial activity was determined as described with some modifications as detailed below. Bacteria were grown overnight in Mueller-Hinton broth (Difeo) at 37° C., and during the mid-logarithmic phase, bacteria were diluted to 10^6 CFU (colony formation unit)/ml in phosphate buffer (10 mM sodium phosphate and 50 mM sodium chloride, pH 7.2). Peptides were serially diluted in the same buffer. Fifty microliter (μl) of bacteria was mixed with fifty μl of peptides at varying concentrations followed by incubation at 37° C. for 3 hours without shaking. At the end of incubation, bacteria were placed on Mueller-Hinton broth agar plates, and allowed growth at 37° C. overnight for measurement of minimal bactericidal concentration (MBC). […] All peptides were tested in triplicate.

[3] = tested on: E. coli; type: cell-based, Escherichia coli; settings: for Minimal bactericidal concentration: E. coli ATCC 25922
Procedure: as §2, §3

[4] = tested on: P. aeruginosa; type: cell-based, Pseudomonas aeruginosa
Procedure: as §2
(§4) Clinical isolates of Pseudomonas aeruginosa (NHRI-01, NHRI-02 AND NHRI-04) were obtained through the program of Taiwan Surveillance of Antimicrobial Resistance, National Health Research Institutes, Taiwan, Acinetobacter baumannii (ATCC 17989, ATCC 17978 CR, ATCC19606, ATCC 19606 CR, TCGH 45530 AND TCGH 46709) were obtained from Tzu-Chi Buddhist General Hospital in Taiwan, and clinical isolates (TCGH 1 45530 AND TCGH 46709) were identified using the Vitek system (Biomerieux Vitek, Inc., MO, USA). A. baumannii is defined as multidrug-resistant when the organism is resistant to piperacillin, piperacillin-tazobactam, ampicillin/sulbactam, imipenem, ceftazidime, gentamicin, amikacin, tetracycline, chloramphenicol, ciprofloxacin, and cotrimoxazole. Susceptibility to colistin was determined using the broth-dilution method, in accordance with the guidelines of the Clinical and Laboratory Standards Institute.
All peptides were purchased from Yao-Hong Biotechnology Inc. (Taipei, Taiwan). Vendors provided data of peptide characterizations, including HPLC and Mass. Antimicrobial activity was determined as described with some modifications as detailed below. Bacteria were grown overnight in Mueller-Hinton broth (Difeo) at 37° C., and during the mid-logarithmic phase, bacteria were diluted to 10^6 CFU (colony formation unit)/ml in phosphate buffer (10 mM sodium phosphate and 50 mM sodium chloride, pH 7.2). Peptides were serially diluted in the same buffer. […]

[5] = tested on: S. aureus; type: cell-based, Staphylococcus aureus; settings: for Minimal bactericidal concentration: S. aureus ATCC 19636
Procedure: as §2, §3

[6] = tested on: A. baumannii; type: cell-based, Acinetobacter baumannii
Source text: as §4
All peptides were purchased from Yao-Hong Biotechnology Inc. (Taipei, Taiwan). Vendors provided data of peptide characterizations, including HPLC and Mass. Antimicrobial activity was determined as described with some modifications as detailed below. […]

[7] = tested on: human red blood cells; assay: Hemolytic activity; type: cell-based; settings: 10% hRBCs, one hour of incubation
Procedure: as §1
The hemolytic activities of peptides were determined by hemolysis against human red blood cells (hRBCs). Human blood was obtained in EDTA-containing tube and was centrifuged at 450 g for 10 min. […] After centrifugation at 450 g for 10 min, the percentage of hemolysis was determined by measuring the absorbance at the wavelength of 405 nm of the supernatant. Blank and 100% hemolysis were determined in PBS buffer and in the presence of 1% Triton X-100, respectively.

[8] = tested on: C. albicans; type: cell-based, Candida albicans
Procedure: as §2
(§5) All peptides were purchased from Yao-Hong Biotechnology Inc. (Taipei, Taiwan). Vendors provided data of peptide characterizations, including HPLC and Mass. Antimicrobial activity was determined as described with some modifications as detailed below. Bacteria were grown overnight in Mueller-Hinton broth (Difeo) at 37° C., and during the mid-logarithmic phase, bacteria were diluted to 10^6 CFU (colony formation unit)/ml in phosphate buffer (10 mM sodium phosphate and 50 mM sodium chloride, pH 7.2). Peptides were serially diluted in the same buffer. Fifty microliter (μl) of bacteria was mixed with fifty μl of peptides at varying concentrations followed by incubation at 37° C. for 3 hours without shaking. […]

[9] = tested on: Vero and HEK293 cells; assay: CFSE cell proliferation assay; type: cell-based, human, monkey; settings: 5, 25 and 100 μM for 1 hour, day 3 vs day 1
Procedure: as §1
To set up CFSE cell proliferation assay, 293 cells (human kidney origin) and Vero cells (monkey kidney origin) were resuspended in PBS to a final concentration of 10^6 cells/ml before incubation with 10 μM CFSE dye (CELLTRACE™ CFSE cell proliferation kit, INVITROGEN™) at 37° C. for 10 min. To quench the staining, ice-old culture media were then added and incubated on ice for 5 min. […] Forty-eight hours later, cells were harvested and analyzed by flow cytometry (FACSCanto, BD Bioscience).

[10] = tested on: ICR mice; assay: In vivo acute toxicity
Procedure: as §1
Three-week old male ICR mice (19 to 21 g) were purchased from BioLASCO (Taiwan) Overnight culture of bacteria in BHI broth (Difco) was subcultured in fresh BRI broth to log phase. Inoculums were diluted in BHI broth to indicated densities. To test the acute toxicity of ARD peptide in vivo, ICR male mice were inoculated intraperitoncally (i.p.) with 10 and 20 mg/kg HBc147-183 in PBS, respectively. […] After peptide injection, the number of dead mice was recorded daily for 7 days post-injection. […] Mortality was monitored daily for 7 days post-inoculation. […]

[11] = tested on: tested bacteria and fungi; type: cell-based; settings: for bacteria; serine-phosphorylated peptides
Procedure: as §2, §5

Molecule: CC[C@H](C)[C@H](NC(=O)CN)C(=O)NCC(=O)N[C@@H](C)C(=O)N[C@H](C(=O)N[C@@H](CC(C)C)C(=O)N[C@@H](CCCCN)C(=O)N[C@H](C(=O)N[C@@H](CC(C)C)C(=O)N[C@H](C(=O)N[C@H](C(=O)NCC(=O)N[C@@H](CC(C)C)C(=O)N1CCC[C@H]1C(=O)N[C@@H](C)C(=O)N[C@@H](CC(C)C)C(=O)N[C@H](C(=O)N[C@@H](CO)C(=O)N[C@@H](Cc1c[nH]c2ccccc12)C(=O)N[C@H](C(=O)N[C@@H](CCCCN)C(=O)N[C@@H](CCCNC(=N)N)C(=O)N[C@@H](CCCCN)C(=O)N[C@@H](CCCNC(=N)N)C(=O)N[C@@H](CCC(N)=O)C(=O)N[C@@H](CCC(N)=O)C(N)=O)[C@@H](C)CC)[C@@H](C)CC)[C@@H](C)O)[C@@H](C)O)C(C)C)C(C)C [melittin, reference compound]
- effect on cell viability [1]: strong toxicity
- viability of cells ([1]; low dose (3.125 μM), 1 hour): significantly decreased

Molecule: TVIRRRGGARASRSPRRRTPSPRRRRSQSPRRRRSQSPSANC [wHBc ARD]
- Minimal bactericidal concentration [2]: 2 µM
- Minimal bactericidal concentration [3]: 4 µM
- Minimal bactericidal concentration ([4]; P. aeruginosa ATCC 9027): 2 µM
- Minimal bactericidal concentration ([4]; P. aeruginosa ATCC 27853): 2 µM
- Minimal bactericidal concentration [5]: 8 µM

Molecule: TVVRRRGRSPRRRTPSPRRRRSQSPRRRRSQSRESQC [HBc147-183]
- MBC ([2]; K. pneumonia, strain not given): lower than 4 μM
- Minimal bactericidal concentration [2]: 2 µM
- MBC [6]: 0.5 to 1 µM
- MBC ([6]; colistin-resistant A. baumannii): 0.5 to 1 µM
- hemolysis [7]: no detectable hemolysis
- Minimal bactericidal concentration [3]: 4 µM
- MBC ([3]; E. coli, strain not given): around 4 μM
- MBC [8]: ~8 µM
- MBC ([4]; colistin-resistant P. aeruginosa): > 16 µM
- effect on cell viability [1]: no detectable effect
- cytotoxicity ([1]; 100 μM, 1 hour): only a low level of cytotoxicity
- effect on cell proliferation [9]: no significant effect
- in vivo toxicity ([10]; 20 mg/kg i.p.): no apparent in vivo toxicity
- survival after peptide injection ([10]; 10 and 20 mg/kg intraperitoneally, 7 days): All mice were alive
- Minimal bactericidal concentration [5]: 4 µM
- MBC ([5]; S. aureus, strain not given): around 4 μM

Molecule: CC(C)[C@H](NC(=O)[C@@H](NC(=O)[C@@H](N)[C@@H](C)O)C(C)C)C(=O)N[C@@H](CCCNC(=N)N)C(=O)N[C@@H](CCCNC(=N)N)C(=O)N[C@@H](CCCNC(=N)N)C(=O)NCC(=O)N[C@@H](CCCNC(=N)N)C(=O)N[C@@H](COP(=O)(O)O)C(=O)N1CCC[C@H]1C(=O)N[C@@H](CCCNC(=N)N)C(=O)N[C@@H](CCCNC(=N)N)C(=O)N[C@@H](CCCNC(=N)N)C(=O)N[C@H](C(=O)N1CCC[C@H]1C(=O)N[C@@H](COP(=O)(O)O)C(=O)N1CCC[C@H]1C(=O)N[C@@H](CCCNC(=N)N)C(=O)N[C@@H](CCCNC(=N)N)C(=O)N[C@@H](CCCNC(=N)N)C(=O)N[C@@H](CCCNC(=N)N)C(=O)N[C@@H](CO)C(=O)N[C@@H](CCC(N)=O)C(=O)N[C@@H](COP(=O)(O)O)C(=O)N1CCC[C@H]1C(=O)N[C@@H](CCCNC(=N)N)C(=O)N[C@@H](CCCNC(=N)N)C(=O)N[C@@H](CCCNC(=N)N)C(=O)N[C@@H](CCCNC(=N)N)C(=O)N[C@@H](CO)C(=O)N[C@@H](CCC(N)=O)C(=O)N[C@@H](CO)C(=O)N[C@@H](CCCNC(=N)N)C(=O)N[C@@H](CCC(=O)O)C(=O)N[C@@H](CO)C(=O)N[C@@H](CCC(N)=O)C(=O)N[C@@H](CS)C(=O)O)[C@@H](C)O [HBc155p162p170p]
- MBC [11]: > 32 µM
